In the supplement of paper PMC10307832:

Tests used:
Assay in all cases: relative viability (nuclei count vs DMSO), 5 days (fraction); higher = more cells survive
Quizartinib + Bortezomib = compound: CC(C)(C)c1cc(NC(=O)Nc2ccc(-c3cn4c(n3)sc3cc(OCCN5CCOCC5)ccc34)cc2)no1 [Quizartinib] + CC(C)C[C@H](NC(=O)[C@H](Cc1ccccc1)NC(=O)c1cnccn1)B(O)O [Bortezomib] (partner 0.002 µM)
Summary of the method: (§1)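 Lung cancer cell lines, seeded in 1536-well plates, were treated the following day by pin tool with a single drug or with five library-drug doses (not always all listed) in √10 steps on top of a fixed anchor-drug dose. Cells were fixed and nuclei stained in one step after 5 days, and nuclei were counted. Relative viability is the nuclei count for treated wells divided by that for vehicle wells, reported as medians of duplicate plates.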

Quizartinib + Decitabine = compound: CC(C)(C)c1cc(NC(=O)Nc2ccc(-c3cn4c(n3)sc3cc(OCCN5CCOCC5)ccc34)cc2)no1 [Quizartinib] + Nc1ncn([C@H]2C[C@H](O)[C@@H](CO)O2)c(=O)n1 [Decitabine] (partner 2 µM)
Summary of the method: as §1

YM155 + Luminespib = compound: COCC[n+]1c2c(n(Cc3cnccn3)c1C)C(=O)c1ccccc1C2=O [YM155] + CCNC(=O)c1noc(-c2cc(C(C)C)c(O)cc2O)c1-c1ccc(CN2CCOCC2)cc1 [Luminespib] (partner 0.01 µM)
Summary of the method: as §1

YM155 + Dasatinib = compound: COCC[n+]1c2c(n(Cc3cnccn3)c1C)C(=O)c1ccccc1C2=O [YM155] + Cc1nc(Nc2ncc(C(=O)Nc3c(C)cccc3Cl)s2)cc(N2CCN(CCO)CC2)n1 [Dasatinib] (partner 0.075 µM)
Summary of the method: as §1

| Cell Line | relative viability (Quizartinib + Bortezomib; first compound 0.001 µM) | relative viability (Quizartinib + Bortezomib; first compound 0.003162 µM) | relative viability (Quizartinib + Bortezomib; first compound 0.01 µM) | relative viability (Quizartinib + Bortezomib; first compound 0.03162 µM) | relative viability (Quizartinib + Bortezomib; first compound 0.1 µM) | relative viability (Quizartinib + Decitabine; first compound 0.001 µM) | relative viability (Quizartinib + Decitabine; first compound 0.003162 µM) | relative viability (Quizartinib + Decitabine; first compound 0.01 µM) | relative viability (Quizartinib + Decitabine; first compound 0.03162 µM) | relative viability (Quizartinib + Decitabine; first compound 0.1 µM) | relative viability (YM155 + Luminespib; first compound 0.002 µM) | relative viability (YM155 + Luminespib; first compound 0.006325 µM) | relative viability (YM155 + Luminespib; first compound 0.02 µM) | relative viability (YM155 + Luminespib; first compound 0.06325 µM) | relative viability (YM155 + Dasatinib; first compound 0.002 µM) | relative viability (YM155 + Dasatinib; first compound 0.006325 µM) | relative viability (YM155 + Dasatinib; first compound 0.02 µM) | relative viability (YM155 + Dasatinib; first compound 0.06325 µM) |
| --- | --- | --- | --- | --- | --- | --- | --- | --- | --- | --- | --- | --- | --- | --- | --- | --- | --- | --- |
| 201T | 1.09 | 1.09 | 1.1 | 1.09 | 1.12 | 0.812 | 0.799 | 0.882 | 0.847 | 0.87 | 1.05 | 1.06 | 1.04 | 1.09 | 0.562 | 0.616 | 0.558 | 0.609 |
| NCI-H1792 | 0.783 | 0.947 | 1.01 | 0.793 | 0.952 | 0.459 | 0.502 | 0.598 | 0.449 | 0.577 | 0.441 | 0.47 | 0.475 | 0.403 | 0.83 | 0.606 | 0.782 | 0.941 |
| PC-3 [JPC-3] | 0.782 | 0.822 | 0.859 | 0.791 | 0.841 | 0.837 | 0.843 | 0.841 | 0.862 | 0.831 | 0.654 | 0.732 | 0.673 | 0.653 | 0.917 | 1.04 | 1.02 | 1.01 |
| HCC-827 | 0.998 | 1.11 | 1.02 | 1.06 | 1.01 | 0.291 | 0.358 |  | 0.313 | 0.334 | 0.662 | 0.451 | 0.403 | 0.586 | 0.337 | 0.262 | 0.308 | 0.345 |
| LXF-289 | 0.868 | 0.955 | 0.983 | 0.949 | 1.03 | 0.347 | 0.321 | 0.427 | 0.432 | 0.42 | 0.651 | 0.683 | 0.675 | 0.504 | 0.233 | 0.231 | 0.194 | 0.224 |
| NCI-H520 | 0.448 | 0.549 | 0.736 | 0.532 | 0.462 |  | 0.449 | 0.501 | 0.542 | 0.462 | 0.238 | 0.266 | 0.215 | 0.233 | 0.197 | 0.174 | 0.217 | 0.185 |
| RERF-LC-KJ | 1.04 | 1.15 | 1.26 | 1.1 | 1.06 | 0.628 | 0.73 | 0.694 | 0.429 | 0.628 | 1.14 | 1 | 1.18 | 1.15 | 0.755 | 0.836 | 0.851 | 0.78 |
| ABC-1 | 0.283 | 0.232 | 0.299 | 0.28 | 0.262 |  | 1 | 1.16 | 1.29 | 1.16 | 0.439 | 0.386 | 0.169 | 0.256 | 0.48 | 0.374 | 0.197 | 0.26 |
| NCI-H3122 | 1.01 | 1 | 1.09 | 1.02 | 0.983 | 0.382 | 0.354 | 0.524 | 0.459 | 0.417 | 0.0874 | 0.123 | 0.0877 | 0.0824 | 0.548 | 0.641 | 0.857 | 0.932 |
